Common to all, as to format: in vivo
One data set deals with rice (japonica rice). The experiment in a line: Transplanted rice safety evaluation. To be noted: transplanted 3-leaf japonica rice, 1000 g a.i./ha, 21 days after treatment. The protocol: In addition, the rice field soil that loaded into the 1/1,000,000 ha pot was leveled to keep water storage at 3-4 cm depth. The 3-leaf stage rice (japonica rice) was transplanted at 3 cm of transplanting depth the next day. The compound of the present invention was treated by the same way after 5 days of transplantation.
(§1) The fertility condition of Monochoria vaginalis 14 days and rice 21 days after the treatment of the compound of the invention with the naked eye.

In the next data set the test system is rice. The experiment in a line: Post-emergence test experiment, rice (crop selectivity). The following applies: 3 weeks. The gist of the method:
(§2)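 Read-out is fresh weight inhibition rate, taken 3 weeks after spraying. Treatment was applied to plants at the 2-3 leaf stage, grown from seed under 0.5-2 cm soil in greenhouse pots. Spray solution contained acetone, tween-80 and methyl oleate emulsible concentrate at 1.5 liters per hectare.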

For data set [1], the system named is Semen Euphorbiae Lathyridis. The experiment in a line: Post-emergence test experiment, Semen Euphorbiae Lathyridis. The following applies: 3 weeks. In short, it runs like this: as §2
The subject of a further data set is Digitaria sanguinalis. Kind of data set: Post-emergence test experiment, Digitaria sanguinalis. The following applies: for Activity level (growth inhibition rate), Digitaria sanguinalis: 1000 g a.i./ha, 3 weeks in greenhouse, fresh weight inhibition. In short, it runs like this:
as §2

For data set [2], the system named is Monocotyledonous and dicotyledonous weed seeds and main crop seeds. The experiment in a line: Post-emergence test experiment, other weeds and crops (Table 4, 1000 g a.i./ha). To be noted: 3 weeks in greenhouse, fresh weight inhibition. In short, it runs like this: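 Weed and crop seeds (wheat, corn, rice, soybean, cotton, oilseed, millet, sorghum) sown in soil pots in a greenhouse and sprayed at 2-3 leaf stage, 2 weeks after sowing. Compound in acetone/tween-80 with methyl oleate concentrate (1.5 L/ha) as synergist. Effect recorded as fresh-weight growth inhibition rate.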

The test system of the next data set is Monochoria vaginalis. The experiment in a line: Weed control effect evaluation in rice field. To be noted: paddy pot, 0.5 leaf stage, 1000 g a.i./ha, 14 days; weed resistant to pyrazosulfuron-ethyl and penoxsulam. The protocol:
Rice field soil was loaded into a 1/1,000,000 ha pot. The seeds of Monochoria vaginalis were sowed and gently covered with soil, then left to stand still in greenhouse in the state of 0.5-1 cm of water storage. It was kept at 3-4 cm of water storage thereafter. The weeds were treated by dripping the WP or SC water diluents prepared according to the common preparation method of the compounds of the present invention with pipette homogeneously to achieve specified effective amount when Monochoria vaginalis reached 0.5 leaf stage.
as §1

The test system of a further data set is Echinochloa crusgalli. Kind of data set: Post-emergence test experiment, Echinochloa crusgalli. To be noted: for Activity level (growth inhibition rate), Echinochloa crusgalli: 1000 g a.i./ha, 3 weeks in greenhouse, fresh weight inhibition. The gist of the method: as §2
The mark [3] stands for this setting: 400 g a.i./ha, 3 weeks, resistant weed.

With `CCOC(=O)[C@@H](C)Oc1nc(F)c(Cl)c(N)c1Cl` [Compound 2-71], in the data set on rice (japonica rice), the “rice, safety level 0-5” value is listed as 0 (Level 0: the growth inhibition rate is less than 5%). Moreover, the “rice, activity level (growth inhibition rate)” value was 0 (Level 0: the growth inhibition rate is less than 5%) in the data set with rice (200 g a.i./ha); 2 (Level 2: the growth inhibition rate is equal to or greater than 20% and less than 40%) in the data set on rice (400 g a.i./ha). The “Semen Euphorbiae Lathyridis, activity level (growth inhibition rate)” value is reported as 5 (Level 5: the growth inhibition rate is greater than 85%) in data set [1] (200 g a.i./ha, weed resistant to cyhalofop-butyl) and 5 (Level 5: the growth inhibition rate is greater than 85%) in data set [1] (400 g a.i./ha, resistant weed). For the same compound, the “Digitaria sanguinalis, activity level (growth inhibition rate)” value is given as 5 (Level 5: the growth inhibition rate is greater than 85%) in the data set with Digitaria sanguinalis (200 g a.i./ha, 3 weeks, weed resistant to cyhalofop-butyl) and 5 (Level 5: the growth inhibition rate is greater than 85%) in the data set on Digitaria sanguinalis (setting [3]). Besides, in the data set on Digitaria sanguinalis, the “Activity level (growth inhibition rate), Digitaria sanguinalis” value was 5 (Level 5: the growth inhibition rate is greater than 85%). Moreover, the “Activity level (growth inhibition rate), Abutilon theophrasti Medic.” value in data set [2] was 5 (Level 5: the growth inhibition rate is greater than 85%). The “Activity level (growth inhibition rate), Galium aparine” value in data set [2] is 5 (Level 5: the growth inhibition rate is greater than 85%). Also, in data set [2], the “Activity level (growth inhibition rate), Monochoria Vaginalis” value was 5 (Level 5: the growth inhibition rate is greater than 85%). In the data set on Monochoria vaginalis, the “Monochoria Vaginalis, activity level 0-5” value is on record as 5 (Level 5: the growth inhibition rate is greater than 85%). Besides, the “Echinochloa crusgalli, activity level (growth inhibition rate)” value in the data set on Echinochloa crusgalli (200 g a.i./ha, 3 weeks, weed resistant to ALS inhibitor and ACCe herbicides) is recorded as 5 (Level 5: the growth inhibition rate is greater than 85%); in the data set with Echinochloa crusgalli (setting [3]) it was 5 (Level 5: the growth inhibition rate is greater than 85%). Further, the “Activity level (growth inhibition rate), Echinochloa crusgalli” value in the data set on Echinochloa crusgalli is 5 (Level 5: the growth inhibition rate is greater than 85%).

As usually defined, the inhibition is the percentage by which the read-out fell short of the control. On to `COC(=O)[C@@H](C)Oc1nc(F)c(Cl)c(N)c1Cl` [Compound 2-69], for which the “rice, safety level 0-5” value in the data set on rice (japonica rice) is listed as 0 (Level 0: the growth inhibition rate is less than 5%). Besides, the “rice, activity level (growth inhibition rate)” value with rice (200 g a.i./ha) is listed as 0 (Level 0: the growth inhibition rate is less than 5%). In addition, the inhibition at 200 g/ha in data set [1] (504 h, 200 g a.i./ha, weed resistant to cyhalofop-butyl, read-out: Semen Euphorbiae Lathyridis, activity level (growth inhibition rate)) is greater than 85%; with Digitaria sanguinalis (Digitaria sanguinalis, 504 h, 200 g a.i./ha, 3 weeks, weed resistant to cyhalofop-butyl, read-out: Digitaria sanguinalis, activity level (growth inhibition rate)), greater than 85%; in the data set with Echinochloa crusgalli (Echinochloa crus-galli, 504 h, 200 g a.i./ha, 3 weeks, weed resistant to ALS inhibitor and ACCe herbicides, read-out: Echinochloa crusgalli, activity level (growth inhibition rate)) it was greater than 85%. Further, the “Activity level (growth inhibition rate), Digitaria sanguinalis” value in the data set with Digitaria sanguinalis was 5 (Level 5: the growth inhibition rate is greater than 85%). In addition, the “Activity level (growth inhibition rate), Abutilon theophrasti Medic.” value in data set [2] is 5 (Level 5: the growth inhibition rate is greater than 85%). In data set [2], the “Activity level (growth inhibition rate), Galium aparine” value is on record as 5 (Level 5: the growth inhibition rate is greater than 85%). In data set [2], the “Activity level (growth inhibition rate), Monochoria Vaginalis” value is given as 5 (Level 5: the growth inhibition rate is greater than 85%). Also, the “Monochoria Vaginalis, activity level 0-5” value with Monochoria vaginalis is 5 (Level 5: the growth inhibition rate is greater than 85%). Further, the “Activity level (growth inhibition rate), Echinochloa crusgalli” value in the data set with Echinochloa crusgalli was 5 (Level 5: the growth inhibition rate is greater than 85%).

Source of the values: US12304890B2, “R-type pyridyloxycarboxylic acid, salt and ester derivative thereof, and preparation method therefor, and herbicidal composition and application thereof” (Qingdao Kingagroot Chemical Compound Co., Ltd., priority 2018, dated 2025).
